Where two headings read alike, the source gives them in different places.
What was measured:
[1] = test system: P. falciparum Tm90-C2B (atovaquone-resistant clinical isolate); assay: In vitro antiplasmodial activity, SYBR Green I assay, Tm90-C2B; type: cell-based; details: Plasmodium falciparum, read-out: P. falciparum IC50 values, nM Tm90-C2B
Method: (§1) Rationale for Synthesis of a 3-Biaryl Version of ELQ-300. […] All of this information is stored in a database with information relating to chemical structure, physical chemical properties, cross resistance patterns, mammalian cell cytotoxicity, enzyme inhibitor profiles, and synthesis details. […] We employed the SyBr Green assay and the plates were incubated for 72 hours before harvesting^18, 19. […] Stock solutions were freshly prepared in DMSO.
(§2) Plasmodium falciparum Culture. Laboratory strains of P. falciparum were cultured in human erythrocytes by standard methods. The parasites were grown in culture medium with fresh human erythrocytes maintained at 2% hematocrit at 37° C. in low-oxygen conditions (5% O2, 5% CO2, […] balance N2). […] Cultures were maintained at less than 10% parasitemia by transfer of infected cells to fresh erythrocytes and culture medium every 3 or 4 days.
(§3) In vitro drug susceptibility assays. SYBR green I assay. In vitro antiplasmodial activity was assessed using a published SYBR Green I fluorescence-based method. The drugs were added to 96-well plates using 2-fold serial dilutions in complete medium. […] Asynchronous P. falciparum parasites were diluted with uninfected erythrocytes and added to the wells to give a final culture volume of 100 μl at 2% hematocrit and 0.2% parasitemia. […] The parasites were then lysed by adding 100 μl of SYBR green I lysis buffer containing 0.2 μl/ml SYBR green I dye (10,000×) in 20 mM Tris (pH 7.5), 5 mM EDTA, 0.008% (wt/vol) saponin, and 0.08% (vol/vol) Triton X-100. The plates were incubated at room temperature for an hour in the dark. […] If the IC50 value fell outside of the initial tested range then the range was adjusted up or down and the assay was repeated.

[2] = test system: P. falciparum D6 strain (drug sensitive); assay: In vitro antiplasmodial activity, SYBR Green I assay, D6 strain; type: cell-based, Plasmodium falciparum; details: Plasmodium falciparum, read-out: P. falciparum IC50 values, nM D6
Method: as §1, §2, §3

[3] = test system: P. falciparum D1 clone (ELQ-300 resistant); assay: microbe, parasite or virus in culture; type: cell-based; details: Plasmodium falciparum, 72 h, read-out: P. falciparum IC50 values, nM D1
[4] = test system: P. falciparum Dd2 strain (multidrug resistant); assay: microbe, parasite or virus in culture; type: cell-based, Plasmodium falciparum; details: Plasmodium falciparum, DD2, 72 h, read-out: P. falciparum IC50 values, nM Dd2
Method: as §1, §2, §3

[5] = Tm90-C2B strain, 72 h incubation, averages of quadruplicate with (95% confidence intervals)
[6] = D6 strain, 72 h incubation, averages of quadruplicate with (95% confidence intervals)

COc1cc2[nH]c(C)c(-c3ccc(-c4ccc(OC(F)F)cc4)cc3)c(=O)c2cc1Cl [ELQ-600, 6-chloro-3-(4′-(difluoromethoxy)-[1,1′-biphenyl]-4-yl)-7-methoxy-2-methylquinolin-4(1H)-one]
IC50 [1, 5]: 5.9 nM
IC50 [2, 6]: 3.9 nM

Cc1[nH]c2cc(F)cc(F)c2c(=O)c1-c1ccc(-c2ccc(OC(F)(F)F)cc2)cc1 [ELQ-601, 5,7-difluoro-2-methyl-3-(4′-(trifluoromethoxy)-[1,1′-biphenyl]-4-yl)quinolin-4(1H)-one]
IC50 [1, 5]: 24.5 nM

COc1cc2[nH]c(C)c(-c3ccc(-c4ccc(C#N)cc4)cc3)c(=O)c2cc1Cl [ELQ-602, 4′-(6-chloro-7-methoxy-2-methyl-4-oxo-1,4-dihydroquinolin-3-yl)-[1,1′-biphenyl]-4-carbonitrile]
IC50 [1, 5]: 10.9 nM
IC50 [2, 6]: 4.8 nM

COc1cc2[nH]c(C)c(-c3ccc(-c4ccc(C)cc4)cc3)c(=O)c2cc1Cl [ELQ-603, 6-chloro-7-methoxy-2-methyl-3-(4′-methyl-[1,1′-biphenyl]-4-yl)quinolin-4(1H)-one]
IC50 [1, 5]: 1.5 nM
IC50 [2, 6]: 1 nM

COc1cc2[nH]c(C)c(-c3ccc(-c4cccc(OC(F)(F)F)c4)cc3)c(=O)c2cc1Cl [ELQ-604, 6-chloro-7-methoxy-2-methyl-3-(3′-(trifluoromethoxy)-[1,1′-biphenyl]-4-yl)quinolin-4(1H)-one]
IC50 [1, 5]: 0.5 nM
IC50 [2, 6]: 0.6 nM

COc1cc2[nH]c(C)c(-c3ccc(-c4ccc(Cl)cc4)cc3)c(=O)c2cc1Cl [ELQ-637, 6-chloro-3-(4′-chloro-[1,1′-biphenyl]-4-yl)-7-methoxy-2-methylquinolin-4(1H)-one]
IC50 [1, 5]: 3 nM
IC50 [2, 6]: 3.4 nM

COc1ccc(-c2ccc(-c3c(C)[nH]c4cc(OC)c(Cl)cc4c3=O)cc2)cc1 [ELQ-645, 6-chloro-7-methoxy-3-(4′-methoxy-[1,1′-biphenyl]-4-yl)-2-methylquinolin-4(1H)-one]
IC50 [1, 5]: 6 nM
IC50 [2, 6]: 5 nM

COc1cc2[nH]c(C)c(-c3ccc(-c4cccc(C(F)(F)F)c4)cc3)c(=O)c2cc1Cl [ELQ-646, 6-chloro-7-methoxy-2-methyl-3-(3′-(trifluoromethyl)-[1,1′-biphenyl]-4-yl)quinolin-4(1H)-one]
IC50 [1, 5]: 1 nM
IC50 [2, 6]: 1.1 nM

COc1cc2[nH]c(C)c(-c3ccc(-c4ccc(C(F)(F)F)cc4)cc3)c(=O)c2cc1Cl [ELQ-647, 6-chloro-7-methoxy-2-methyl-3-(4′-(trifluoromethyl)-[1,1′-biphenyl]-4-yl)quinolin-4(1H)-one]
IC50 [1, 5]: 3.5 nM
IC50 [2, 6]: 3.5 nM

Cc1[nH]c2ccccc2c(=O)c1-c1ccc(-c2ccc(OC(F)(F)F)cc2)cc1 [ELQ-649, 2-methyl-3-(4′-(trifluoromethoxy)-[1,1′-biphenyl]-4-yl)quinolin-4(1H)-one]
IC50 [1, 5]: 6 nM
IC50 [2, 6]: 7.9 nM

COc1cc2[nH]c(C)c(-c3ccc(-c4ccc(OC(F)(F)F)cc4)cc3)c(=O)c2cc1F [ELQ-650, 6-fluoro-7-methoxy-2-methyl-3-(4′-(trifluoromethoxy)-[1,1′-biphenyl]-4-yl)quinolin-4(1H)-one]
IC50 [1, 5]: 0.4 nM
IC50 [2, 6]: 0.8 nM

COc1cc2[nH]c(C)c(-c3ccc(-c4ccc(C(C)(C)C)cc4)cc3)c(=O)c2cc1Cl [ELQ-651, 3-(4′-(tert-butyl)-[1,1′-biphenyl]-4-yl)-6-chloro-7-methoxy-2-methylquinolin-4(1H)-one]
IC50 [1, 5]: 0.49 nM
IC50 [2, 6]: 1.1 nM

COc1cc2[nH]c(C)c(-c3ccc(-c4ccc(Oc5ccc(OC(F)(F)F)cc5)cc4)cc3)c(=O)c2cc1Cl [ELQ-653]
IC50 [1, 5]: 0.88 nM
IC50 [2, 6]: 1.5 nM

COc1cc2[nH]c(C)c(-c3ccc(-c4ccc(C(F)F)cc4)cc3)c(=O)c2cc1Cl [ELQ-659, 6-chloro-3-(4′-(difluoromethyl)-[1,1′-biphenyl]-4-yl)-7-methoxy-2-methylquinolin-4(1H)-one]
IC50 [1, 5]: 0.57 nM
IC50 [2, 6]: 1.8 nM

Cc1[nH]c2c(c(=O)c1-c1ccc(-c3ccc(OC(F)(F)F)cc3)cc1)CCCC2 [ELQ-660]
IC50 [1, 5]: 7.9 nM
IC50 [2, 6]: 15.6 nM

COc1ccc2c(=O)c(-c3ccc(-c4cccc(C(F)(F)F)c4)cc3)c(C)[nH]c2c1 [ELQ-730, 7-Methoxy-2-methyl-3-(3′-(trifluoromethyl)-[1,1′-biphenyl]-4-yl)quinolin-4(1H)-one]
IC50 [1, 5]: 4.05 nM
IC50 [3]: 3.82 nM
IC50 [2, 6]: 5.02 nM
IC50 [4]: 5.33 nM

COc1ccc2c(=O)c(-c3ccc(-c4cc(C(F)(F)F)cc(C(F)(F)F)c4)cc3)c(C)[nH]c2c1 [ELQ-731, 3-(3′,5′-bis(trifluoromethyl)-[1,1′-biphenyl]-4-yl)-7-methoxy-2-methylquinolin-4(1H)-one]
IC50 [1, 5]: 2.05 nM
IC50 [3]: 5.56 nM
IC50 [2, 6]: 3.93 nM
IC50 [4]: 4.73 nM

COc1ccc2c(=O)c(-c3ccc(-c4cccc(OC(F)(F)F)c4)cc3)c(C)[nH]c2c1 [ELQ-732, 7-methoxy-2-methyl-3-(3′-(trifluoromethoxy)-[1,1′-biphenyl]-4-yl)quinolin-4(1H)-one]
IC50 [1, 5]: 14.4 nM
IC50 [3]: 10.6 nM
IC50 [2, 6]: 15.9 nM
IC50 [4]: 16.3 nM

COc1ccc2c(=O)c(-c3ccc(-c4cc(F)c(OC(F)(F)F)c(F)c4)cc3)c(C)[nH]c2c1 [ELQ-733, 3-(3′,5′-difluoro-4′-(trifluoromethoxy)-[1,1′-biphenyl]-4-yl)-7-methoxy-2-methylquinolin-4(1H)-one]
IC50 [1, 5]: 2.94 nM
IC50 [3]: 6.18 nM
IC50 [2, 6]: 7.45 nM
IC50 [4]: 7.9 nM

COc1ccc2c(=O)c(-c3ccc(-c4cc(F)c(OC)c(F)c4)cc3)c(C)[nH]c2c1 [ELQ-734, 3-(3′,5′-difluoro-4′-methoxy-[1,1′-biphenyl]-4-yl)-7-methoxy-2-methylquinolin-4(1H)-one]
IC50 [1, 5]: 6.4 nM
IC50 [3]: 11.6 nM
IC50 [2, 6]: 10.9 nM
IC50 [4]: 16.3 nM

COc1ccc2c(=O)c(-c3ccc(-c4ccc(F)cc4OC)cc3)c(C)[nH]c2c1 [ELQ-756, 3-(4′-Fluoro-2′-methoxy-[1,1′-biphenyl]-4-yl)-7-methoxy-2-methylquinolin-4(1H)-one]
IC50 [1, 5]: 3.22 nM
IC50 [3]: 2.06 nM
IC50 [2, 6]: 3.27 nM
IC50 [4]: 4.46 nM

COc1ccc2c(=O)c(-c3ccc(-c4ccc(C(F)(F)F)cc4OC)cc3)c(C)[nH]c2c1 [ELQ-757]
IC50 ([1]; TM90, 72 h): 3 nM
IC50 [3]: 1.91 nM
IC50 ([2]; D6, 72 h): 3.08 nM
IC50 [4]: 4.85 nM
